Experimental findings from patent publication US11707462B2, “Checkpoint kinase 1 (CHK1) inhibitors and uses thereof” (Boundless Bio, Inc., priority 2021, dated 2023) are described below.

Broadly, the IC50 is the point on the concentration scale where inhibition reaches its midpoint. Read a high IC50 as weaker potency in that assay.

SMILES strings stand for the structures.

The target in test [1] is T1, Full-length human Chk1 protein (Homo sapiens, UniProt O14757).
T1 construct: purchased Carna Biosciences, Inc. 02-117
T1 sequence (O14757 1-476): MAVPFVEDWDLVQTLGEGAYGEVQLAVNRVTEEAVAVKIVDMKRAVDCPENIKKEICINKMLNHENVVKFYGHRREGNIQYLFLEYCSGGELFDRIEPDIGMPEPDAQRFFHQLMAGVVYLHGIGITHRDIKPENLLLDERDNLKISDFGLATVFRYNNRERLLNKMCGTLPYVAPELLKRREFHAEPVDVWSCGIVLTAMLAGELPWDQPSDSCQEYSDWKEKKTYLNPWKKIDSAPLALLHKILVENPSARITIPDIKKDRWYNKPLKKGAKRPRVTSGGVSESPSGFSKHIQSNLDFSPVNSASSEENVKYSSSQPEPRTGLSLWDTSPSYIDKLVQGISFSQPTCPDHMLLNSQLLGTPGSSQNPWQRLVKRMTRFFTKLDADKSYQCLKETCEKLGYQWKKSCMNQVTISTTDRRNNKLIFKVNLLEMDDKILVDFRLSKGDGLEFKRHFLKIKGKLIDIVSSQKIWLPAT
The experiment in a line: Kinase HTRF biochemical assay (HTRF KinEASE), Chk1 enzyme activity. Particulars: full-length human Chk1, ATP 1 mM, 60 minutes at room temperature. On the procedure: Example A: Kinase HTRF Biochemical Assay
Chk1 enzyme activity was measured using an HTRF KinEASE assay (Cisbio, catalog no. 62ST1PEC). Full-length human Chk1 protein (GenBank accession number NP_001265.1) was obtained from Carna Biosciences, Inc. (Kobe, Japan, catalog no. 02-117). The enzyme reaction was carried out in assay buffer containing (final concentrations): Chk1 enzyme (0.012 ng/μL), MgCl2 (5 mM) and DTT (1 mM). To determine compound dose response, DMSO stock solutions were serially diluted in a 10-point concentration series in duplicate. Compound solution (50 nL) was added to 384-well assay plates (Greiner, catalog no. 784075). To each well containing compound solution was added assay buffer solution (5 μL). Plates were centrifuged at 1000 rpm for 1 minute, then incubated at room temperature for 10 minutes. The reaction was started by addition of substrate buffer (5 μL/well) containing (final concentrations): STK substrate 1-biotin (120 nM) and ATP (1 mM). Assay plates were centrifuged at 1000 rpm for 1 minute, then incubated at room temperature for 60 minutes. The reaction was stopped by addition of detection buffer (Cisbio, 10 μL) containing (final concentrations): STK antibody-cryptate (0.25 nM) and streptavidin-XL665 (7.5 nM). Plates were centrifuged at 1000 rpm for 1 minute, then incubated at 25° C. for 2 hours. HTRF signal was read on an EnVision multimode plate reader […] in HTRF mode. Data were fit to dose-response curves using XLfit (IDBS, Surrey, UK) or Prism (GraphPad Software, La Jolla, Calif., US) to calculate IC50 values for each compound tested.
(In TR-FRET formats the signal depends on donor and acceptor labels being close together.)

Test [2] deals with p-CHK1 (Ser345). The experiment in a line: AlphaLISA SureFire Ultra p-CHK1 (Ser345) cellular assay in HT29 cells. The class given is cell-based. To be noted: Homo sapiens, HT-29, 16 h at 37° C. The method, then: Example B: AlphaLisa Cellular Assay
Compound activity in cells was measured using an AlphaLISA® SureFire® Ultra™ p-CHK1 (Ser345) assay (Perkin Elmer, catalog no. ALSU-PCHK1-A10K). HT29 cells were cultured in McCoy 5A medium with 10% FBS and 1% penicillin-streptomycin and seeded to 96-well plates (Corning, catalog no. 3599). Compounds were serially diluted in DMSO over a 10-point dose range with 3-fold dilution and to each well containing cells was added compound solution. Plates were centrifuged at 1000 rpm for 30 seconds. Plates were incubated at 37° C. for 16 h. Supernatant was removed by flicking the plate against a paper towel. Wells were washed once with PBS solution. To each well was added freshly prepared lysis buffer and plates were agitated on a plate shaker at 400 rpm for 30 min. The 96-well cell plates were centrifuged at 1500 rpm for 1 minute. From each well was transferred 10 μL of the lysates to a 384-well Optiplate™ (Perkin Elmer, catalog no. 6007290). To each well was added Acceptor Mix (5 μL) and the plates were sealed and wrapped in foil. Plates were agitated on a plate shaker for 2 minutes, then incubated at room temperature for 1 h. To each well was added Donor Mix (5 μL) and the plates were sealed and wrapped in foil. Plates were agitated on a plate shaker for 2 minutes, then incubated at room temperature for 1 h. AlphaLisa signal was read on an EnVision multimode plate reader (Perkin Elmer). Data were fit to dose-response curves using XLfit (IDBS, Surrey, UK) or Prism (GraphPad Software, La Jolla, Calif., US) to calculate IC50 values for each compound tested.
Background: In Alpha technology, singlet oxygen from a donor bead excites a nearby acceptor bead.

In the case of `N#Cc1cnc(Nc2cc(-c3ccccc3O[C@@H]3CC[C@@H](N)C3)[nH]n2)cn1` (stereo in doubt) [Example 1-37, 5-((5-(2-(((1R,3R)-3-aminocyclopentyl)oxy)phenyl)-1H-pyrazol-3-yl)amino)pyrazine-2-carbonitrile], the IC50 is 0.1 to 0.5 µM in test [1] and above 1 µM in test [2]. In the same order, the values of `N#Cc1cnc(Nc2cc(-c3ncccc3O[C@@H]3CC[C@@H](N)C3)[nH]n2)cn1` (stereo in doubt) [Example 1-59, 5-((5-(3-(((1R,3R)-3-aminocyclopentyl)oxy)pyridin-2-yl)-1H-pyrazol-3-yl)amino)pyrazine-2-carbonitrile] are 0.1 to 0.5 µM and above 1 µM. In the same order, the values of `COc1cccc(O[C@H]2CC[C@H](N)CC2)c1-c1cc(Nc2cnc(C#N)cn2)n[nH]1` [Example 1-1, 5-((5-(2-(((lr,4r)-4-aminocyclohexyl)oxy)-6-methoxyphenyl)-1H-pyrazol-3-yl)amino)pyrazine-2-carbonitrile] are at most 0.01 µM and 0.05 to 0.1 µM.

For `COc1cccc(O[C@H]2C[C@@H](N)C2)c1-c1cc(Nc2cnc(C#N)cn2)n[nH]1` [Example 1-4, 5-((5-(2-((1s,3s)-3-aminocyclobutoxy)-6-methoxyphenyl)-1H-pyrazol-3-yl)amino)pyrazine-2-carbonitrile], the 50% inhibitory concentration (IC50) in test [1] was 0.1 to 0.5 µM; in test [2], above 1 µM. In the same order, the values of `COc1cccc(O[C@H]2C[C@H](N)C2)c1-c1cc(Nc2cnc(C#N)cn2)n[nH]1` [Example 1-5, 5-((5-(2-((1r,3r)-3-aminocyclobutoxy)-6-methoxyphenyl)-1H-pyrazol-3-yl)amino)pyrazine-2-carbonitrile] are at most 0.01 µM and at most 0.05 µM. In the same order, the values of `COc1cccc(O[C@@H]2CC[C@H](N)C2)c1-c1cc(Nc2cnc(C#N)cn2)n[nH]1` [Example 1-7, 5-((5-(2-(((1R,3S)-3-aminocyclopentyl)oxy)-6-methoxyphenyl)-1H-pyrazol-3-yl)amino)pyrazine-2-carbonitrile] are at most 0.01 µM and at most 0.05 µM.

Turning to `COc1cccc(O[C@@H]2CC[C@@H](N)C2)c1-c1cc(Nc2cnc(C#N)cn2)n[nH]1` [Example 1-8, 5-((5-(2-(((1R,3R)-3-aminocyclopentyl)oxy)-6-methoxyphenyl)-lH-pyrazol-3-yl)amino)pyrazine-2-carbonitrile], the IC50 in test [1] was at most 0.01 µM; in test [2] it was at most 0.05 µM. In the same order, the values of `N#Cc1cnc(Nc2cc(-c3ccccc3O[C@H]3C[C@H](N)C3)[nH]n2)cn1` [Example 1-9, 5-((5-(2-((1r,3r)-3-aminocyclobutoxy)phenyl)-1H-pyrazol-3-yl)amino)pyrazine-2-carbonitrile] are 0.01 to 0.1 µM and 0.1 to 0.5 µM. For the molecule `N#Cc1cnc(Nc2cc(-c3ccccc3O[C@H]3C[C@@H](N)C3)[nH]n2)cn1` [Example 1-10, 5-((5-(2-((1s,3s)-3-aminocyclobutoxy)phenyl)-1H-pyrazol-3-yl)amino)pyrazine-2-carbonitrile], the results for the IC50 in test [1] and in test [2] were 0.1 to 0.5 µM and above 1 µM, respectively.

With `COc1cccc(O[C@H]2CC[C@@H](N)CC2)c1-c1cc(Nc2cnc(C#N)cn2)n[nH]1` [Example 1-11, 5-((5-(2-(((1s,4s)-4-aminocyclohexyl)oxy)-6-methoxyphenyl)-1H-pyrazol-3-yl)amino)pyrazine-2-carbonitrile], the IC50 in test [1] is 0.01 to 0.1 µM; in test [2] it was 0.1 to 0.5 µM.

Take `CCOc1cccc(O[C@H]2C[C@H](N)C2)c1-c1cc(Nc2cnc(C#N)cn2)n[nH]1` [Example 1-12, 5-((5-(2-((1r,3r)-3-aminocyclobutoxy)-6-ethoxyphenyl)-1H-pyrazol-3-yl)amino)pyrazine-2-carbonitrile]: the IC50 in test [1] was at most 0.01 µM; in test [2] it was 0.1 to 0.5 µM. In test [1], `N#Cc1cnc(Nc2cc(-c3c(F)cccc3O[C@@H]3CCCC[C@@H](N)C3)[nH]n2)cn1` [Example 3-37, 5-((5-(2-(((1R,3R)-3-aminocycloheptyl)oxy)-6-fluorophenyl)-1H-pyrazol-3-yl)amino)pyrazine-2-carbonitrile] yielded an IC50 of 0.01 to 0.1 µM. The same measure, in the same setting: the value for `N#Cc1cnc(Nc2cc(-c3c(F)cccc3O[C@@H]3CCC[C@@H]3N)[nH]n2)cn1` [Example 3-39, 5-((5-(2-(((1R,2S)-2-aminocyclopentyl)oxy)-6-fluorophenyl)-1H-pyrazol-3-yl)amino)pyrazine-2-carbonitrile] was 0.1 to 0.5 µM; that for `N#Cc1cnc(Nc2cc(-c3c(F)cccc3OC3CC4(CC(N)C4)C3)[nH]n2)cn1` (centres unmarked) [Example 3-41, 5-((5-(2-((6-aminospiro[3.3]heptan-2-yl)oxy)-6-fluorophenyl)-1H-pyrazol-3-yl)amino)pyrazine-2-carbonitrile] was 0.1 to 0.5 µM; that for `Cc1ccc(O[C@H]2CC[C@@H](N)C2)c(-c2cc(Nc3cnc(C#N)cn3)n[nH]2)n1` [Example 3-43, 5-((5-(3-(((1S,3R)-3-aminocyclopentyl)oxy)-6-methylpyridin-2-yl)-1H-pyrazol-3-yl)amino)pyrazine-2-carbonitrile] was 0.1 to 0.5 µM.

For the molecule `Cc1nc(-c2cc(Nc3cnc(C(N)=O)cn3)n[nH]2)c(O[C@@H]2CC[C@H](N)C2)cc1F` [Example 3-51, 5-((5-(3-(((1R,3S)-3-aminocyclopentyl)oxy)-5-fluoro-6-methylpyridin-2-yl)-1H-pyrazol-3-yl)amino)pyrazine-2-carboxamide], the IC50 in test [1] is above 1 µM. On the same count and under the same terms, the value for `Cc1nc(-c2cc(Nc3cnc(C#N)cn3)n[nH]2)c(O[C@@H]2CC[C@H](N)C2)cc1Cl` [Example 3-52, 5-((5-(3-(((1R,3S)-3-aminocyclopentyl)oxy)-5-chloro-6-methylpyridin-2-yl)-1H-pyrazol-3-yl)amino)pyrazine-2-carbonitrile] was 0.1 to 0.5 µM; that for `Cc1cc(Cl)c(O[C@@H]2CC[C@H](N)C2)c(-c2cc(Nc3cnc(C#N)cn3)n[nH]2)n1` [Example 3-53, 5-((5-(3-(((1R,3S)-3-aminocyclopentyl)oxy)-4-chloro-6-methylpyridin-2-yl)-1H-pyrazol-3-yl)amino)pyrazine-2-carbonitrile] was above 1 µM.

In test [1], `N#Cc1cnc(Nc2cc(-c3nc(C(F)F)ccc3O[C@@H]3CC[C@H](N)C3)[nH]n2)cn1` [Example 3-54, 5-((5-(3-(((1R,3S)-3-aminocyclopentyl)oxy)-6-(difluoromethyl)pyridin-2-yl)-1H-pyrazol-3-yl)amino)pyrazine-2-carbonitrile] displayed an IC50 of at most 0.01 µM.

In the case of `COc1cccc(OCC2CC2N)c1-c1cc(Nc2cnc(C#N)cn2)n[nH]1` (centres unmarked) [Example 3-55, 5-((5-(2-((2-aminocyclopropyl)methoxy)-6-methoxyphenyl)-1H-pyrazol-3-yl)amino)pyrazine-2-carbonitrile], the IC50 in test [1] was at most 0.01 µM.

As to `COc1ccc(Cl)c(O[C@@H]2CC[C@H](N)C2)c1-c1cc(Nc2cnc(C#N)cn2)n[nH]1` [Example 4-4, 5-((5-(2-(((1R,3S)-3-aminocyclopentyl)oxy)-3-chloro-6-methoxyphenyl)-1H-pyrazol-3-yl)amino)pyrazine-2-carbonitrile], the IC50 in test [1] is 0.1 to 0.5 µM.
